{
  "source": "patent US11135214B2",
  "about": "“Methods for enhancing the bio availability and exposure of a voltage-gated potassium channel opener” (priority 2018, dated 2021)",
  "key": {"[1]": {"tested_on": "spontaneous brain oscillations", "experiment": "TMS crossover study, resting state EEG", "type": "in vivo, human", "from_the_text": "Sensor-level delta (2-4 Hz), theta (4-7 Hz), alpha (8-12 Hz) and beta (13-30 Hz) frequency activity was estimated using a Fast Fourier Transform (FFT) approach. Power of all frequencies between 2 and 30 Hz were estimated, using a frequency resolution of 0.5 Hz. A non-parametric dependent samples t-test based on a permutation approach (1500 permutations) was used to test differences between drug conditions on all EEG sensors."}, "[2]": {"tested_on": "corticospinal excitability", "experiment": "TMS crossover study, TMS-EMG active motor threshold (AMT)", "type": "in vivo, human", "conditions": "for Active Motor Threshold, post-dose change from baseline: individual subjects; for Active Motor Threshold, post-dose change from baseline / Active Motor Threshold, post-dose change from baseline (Mean): single 20 mg dose; for Active Motor Threshold, post-dose change from baseline (Mean): mean of subjects", "experimental": "RMT and AMT values are reported as percentages of maximum stimulator output (% MSO). Drug-induced modulation of TMS-EMG parameters were evaluated over the 3 timepoints (2, 4, and 6 h) and for the timepoint with the highest drug exposure. AMT was recorded while subjects squeezed a manometer at 20% of each individual's maximum contraction force. […] AMT could not be registered for Subjects 912 and 940 at 2 hours after Compound A and placebo intake, respectively."}, "[3]": {"experiment": "Food effect study, oral capsule, plasma PK in non-human primate", "type": "in vivo, Cynomolgus monkeys", "conditions": "3 mg/kg capsule; for Cmax / Tmax / AUC(0-t) / AUC(0-inf) / AUClast: 3 mg/kg; for Tmax: read-out: Tmax; for AUC(0-inf): read-out: AUCinfobs", "experimental": "The following study was conducted to determine the effect of food when Compound A is orally administered to a non-human primate.\nThree (n=3) Cynomolgus monkeys of Vietnamese origin were used in this study. At the time of initial dose administration, the monkeys weighed 4.7 to 5.1 kg and were about 4.5 years of age.\nA certified primate diet (Teklad® Certified Diet 2050C) was fed during the study. For Group 1, the three monkeys were fasted overnight with food returned 4 hours post-dose. For Group 2, the same three monkeys were fasted overnight and offered food about 1 hour prior to dosing and food was returned at 4 hours post-dose. The following Table 1 gives the food consumption for Group 2:\nThe oral dosage units consisted of about 3 mg/kg of Compound A in a capsule. The capsules were filled the morning of the dose administration and kept at room temperature until dosing. The remaining capsules were placed into the −20° C. storage.\nThe capsules were placed as far back in the animal's mouth as possible using a pill gun or a modified gavage tube. Approximately 10 mL of water was administered via syringe to ensure complete delivery of the intended dose. Each animal received 1 capsule per dose. The same animals were dosed twice with a 96 hour washout period between doses.\nGroup 1: All animals were weighed the afternoon prior to dose administration. Animal #2 struggled with dosing. After several attempts, the animal was given a short break and finally dosed successfully.\nGroup 2: All animals were weighed the morning of dose administration. All animals were dosed without incident.\nWhole blood (˜2.0 mL) was collected using syringe and needle from cephalic or saphenous veins and transferred into vacutainer tubes containing K2EDTA and kept on wet ice until processed for plasma. Blood samples were collected at time of dosing (0.0 hours, time zero) and at 0.5, 1, 2, 4, 8, 12, 24 and 48 hours post-dose.\nThe whole blood samples were placed in a K2EDTA tube and centrifuged at 3200 RPM for 10 minutes at approximately 5° C. Plasma samples were divided into 2 aliquots and each aliquot directly transferred to appropriately labeled, individual tubes containing study number, collection time point, animal ID number, and sample description. One aliquot was placed into storage at −20±5° C. until shipment for analysis. The other aliquot was retained at −20±5° C. Red blood cells were disposed.\nAll samples were processed per standard protocol for bioanalytical analysis."}, "[4]": {"conditions": "at highest Compound A plasma concentration vs pre-dose"}, "[5]": {"conditions": "Cynomolgus (Vietnamese origin), cynomolgus monkey, plasma, po, Group 2 (fed), individual subjects"}, "[6]": {"conditions": "Cynomolgus, Vietnamese origin, cynomolgus monkey, plasma, po, Group 1 (fasted), Mean"}, "[7]": {"conditions": "Group 1 (fasted), individual subjects"}, "[8]": {"conditions": "Group 2 (fed), individual subjects"}},
  "note": "Several values for one entry are separate records, joined by “and”; a condition that tells them apart may be missing. Equal entries are not always repeated. Where two headings read alike, the source gives them in different places.",
  "data": [
    {"smiles": "Cc1cc(N2CCc3cc(F)ccc3C2)cc(C)c1NC(=O)CC(C)(C)C", "note": "[Compound A, N-[4-(6-fluoro-3,4-dihydro-1H-isoquinolin-2-yl)-2,6-dimethylphenyl]-3,3-dimethylbutanamide]", "values": [
      {"measurement": "shift of power spectra of resting state EEGs", "setting": "[1]; 20 mg", "value": "toward lower frequencies"},
      {"measurement": "Modulation of resting state EEG bands, Delta", "setting": "[1]; 2 h after dosing vs pre-dose", "value": "↑ Delta"},
      {"measurement": "Modulation of resting state EEG bands, Theta", "setting": "[1]; 2 h after dosing vs pre-dose", "value": "↑ Theta"},
      {"measurement": "Modulation of resting state EEG bands, Beta", "setting": "[1]; 4 h after dosing vs pre-dose", "value": "↑ Beta"},
      {"measurement": "Modulation of resting state EEG bands, Delta", "setting": "[1]; 4 h after dosing vs pre-dose", "value": "↑ Delta"},
      {"measurement": "Modulation of resting state EEG bands, Theta", "setting": "[1]; 4 h after dosing vs pre-dose", "value": "↑ Theta"},
      {"measurement": "resting state delta power vs pre-dose", "setting": "[1]; all available subjects, 2 h p<0.001, 4 h p<0.001", "value": "significantly increased"},
      {"measurement": "resting state beta band power vs pre-dose", "setting": "[1]; all available subjects, 2 h p=0.005, 4 h p<0.001, 6 h p=0.009", "value": "significantly increased"},
      {"measurement": "resting state theta power vs pre-dose", "setting": "[1]; all available subjects, 2 h p=0.006, 4 h two clusters p=0.008 and p=0.03", "value": "significantly increased"},
      {"measurement": "Modulation of resting state EEG bands, Beta", "setting": "[1]; [4]", "value": "↑ Beta"},
      {"measurement": "Modulation of resting state EEG bands, Delta", "setting": "[1]; [4]", "value": "↑ Delta"},
      {"measurement": "Modulation of resting state EEG bands, Theta", "setting": "[1]; [4]", "value": "↑ Theta"},
      {"measurement": "resting state delta power vs pre-dose", "setting": "[1]; concentration analysis N=16, high plasma exposure, p<0.001", "value": "increase in power"},
      {"measurement": "resting state beta power vs pre-dose", "setting": "[1]; concentration analysis N=16, high plasma exposure, p=0.005", "value": "increase in power"},
      {"measurement": "resting state theta power vs pre-dose", "setting": "[1]; concentration analysis N=16, high plasma exposure, p=0.01", "value": "increase in power"},
      {"measurement": "resting state delta power compared to placebo", "setting": "[1]; post-dose minus pre-dose, p<0.001", "value": "overall increase of power"},
      {"measurement": "resting state beta power compared to placebo", "setting": "[1]; post-dose minus pre-dose, p=0.003", "value": "overall increase of power"},
      {"measurement": "resting state theta power compared to placebo", "setting": "[1]; post-dose minus pre-dose, p=0.02", "value": "overall increase of power"},
      {"measurement": "resting state delta power vs pre-dose", "setting": "[1]; subjects with drug exposure, 2 h p=0.001, 4 h p<0.001", "value": "significantly increased"},
      {"measurement": "resting state beta band power vs pre-dose", "setting": "[1]; subjects with drug exposure, 2 h p=0.01, 4 h p<0.001", "value": "significantly increased"},
      {"measurement": "resting state theta power vs pre-dose", "setting": "[1]; subjects with drug exposure, 2 h p=0.01, 4 h p=0.01", "value": "significantly increased"},
      {"measurement": "AMT", "setting": "[2]; 20 mg single dose", "value": "increased"},
      {"measurement": "change from baseline in AMT vs placebo", "setting": "[2]; 20 mg, 6 h post-dose, p<0.01", "value": "significantly different from placebo"},
      {"measurement": "Active Motor Threshold, post-dose change from baseline", "setting": "[2]; 2 h post-dose", "value": "2 % MSO (3×) and 4 % MSO and 0 % MSO (9×) and 3 % MSO and 1 % MSO (5×)"},
      {"measurement": "Active Motor Threshold, post-dose change from baseline", "setting": "[2]; 4 h post-dose", "value": "2 % MSO (4×) and 4 % MSO and 0 % MSO (9×) and 3 % MSO (4×) and 1 % MSO (2×)"},
      {"measurement": "Active Motor Threshold, post-dose change from baseline", "setting": "[2]; 6 h post-dose", "value": "0 % MSO (4×) and 6 % MSO and 1 % MSO (3×) and 2 % MSO (2×) and 3 % MSO (5×) and 4 % MSO"},
      {"measurement": "Active Motor Threshold, post-dose change from baseline (Mean)", "setting": "[2]; 2 h post-dose", "value": 0.9, "unit": "% MSO"},
      {"measurement": "Active Motor Threshold, post-dose change from baseline (Mean)", "setting": "[2]; 4 h post-dose", "value": 1.3, "unit": "% MSO"},
      {"measurement": "Active Motor Threshold, post-dose change from baseline (Mean)", "setting": "[2]; 6 h post-dose", "value": 2.0, "unit": "% MSO"},
      {"measurement": "Cmax", "setting": "[3]; Cynomolgus (Vietnamese origin), cynomolgus monkey, plasma, po, Group 2 (fed), Mean, read-out: Cmax", "value": 65.4, "unit": "ng/mL"},
      {"measurement": "Tmax", "setting": "[3]; Cynomolgus (Vietnamese origin), cynomolgus monkey, plasma, po, Group 2 (fed), Mean", "value": 8, "unit": "h"},
      {"measurement": "AUC(0-t)", "setting": "[3]; [5]", "value": 1120, "unit": "ng·h/mL"},
      {"measurement": "AUC(0-inf)", "setting": "[3]; [5]", "value": 1180, "unit": "ng·h/mL"},
      {"measurement": "Cmax", "setting": "[3]; Cynomolgus (Vietnamese origin), cynomolgus monkey, plasma, po, Group 2 (fed), individual subjects, read-out: Cmax", "value": 50.4, "unit": "ng/mL"},
      {"measurement": "AUC(0-t)", "setting": "[3]; [6]", "value": 1490, "unit": "ng·h/mL"},
      {"measurement": "AUC(0-inf)", "setting": "[3]; [6]", "value": 913, "unit": "ng·h/mL"},
      {"measurement": "Cmax", "setting": "[3]; Cynomolgus, Vietnamese origin, cynomolgus monkey, plasma, po, Group 1 (fasted), Mean, read-out: Cmax", "value": 55.7, "unit": "ng/mL"},
      {"measurement": "Tmax", "setting": "[3]; [6]", "value": 10.7, "unit": "h"},
      {"measurement": "Cmax", "setting": "[3]; Cynomolgus, Vietnamese origin, cynomolgus monkey, plasma, po, Group 1 (fasted), individual subjects, read-out: Cmax", "value": 75.1, "unit": "ng/mL"},
      {"measurement": "Tmax", "setting": "[3]; Cynomolgus, Vietnamese origin, cynomolgus monkey, plasma, po, Group 1 (fasted), individual subjects", "value": 12, "unit": "h"},
      {"measurement": "t½λz", "setting": "[3]; Group 1 (fasted), Mean", "value": 9.7, "unit": "h"},
      {"measurement": "t½λz", "setting": "[3]; [7]", "value": 9.7, "unit": "h"},
      {"measurement": "AUClast", "setting": "[3]; [7]", "value": "1940 ng·h/mL and 1650 ng·h/mL and 869 ng·h/mL"},
      {"measurement": "Cmax", "setting": "[3]; [7]", "value": "53.7 ng/mL and 38.4 ng/mL"},
      {"measurement": "t½λz", "setting": "[3]; Group 2 (fed), Mean", "value": 10.1, "unit": "h"},
      {"measurement": "t½λz", "setting": "[3]; [8]", "value": 10.1, "unit": "h"},
      {"measurement": "AUClast", "setting": "[3]; [8]", "value": "2010 ng·h/mL and 1790 ng·h/mL"},
      {"measurement": "Cmax", "setting": "[3]; [8]", "value": "67.5 ng/mL and 78.2 ng/mL"}
    ]}
  ]
}
